In ChEMBL document CHEMBL5338775, “Discovery of a Novel Class of PROTACs as Potent and Selective Estrogen Receptor α Degraders to Overcome Endocrine-Resistant Breast Cancer In Vitro and In Vivo” (J Med Chem, 2023):
pIC50, pKi: −log10 of the molar value. The source made the active and inactive calls. The calls are words filed in the database; no cut-off is given here. Residues, ends and D or L forms follow the SMILES beside them. *: point of attachment. Cbz = O=C(OCc1ccccc1)*

What was measured:
[1] = target: T1, Estrogen receptor (Homo sapiens) (UniProt P03372); test: Induction of ERalpha degradation in ER-positive human MCF7 cells at 5 uM incubated for 12 hrs by Western blot analysis; type: cell-based
T1 sequence (whole entry): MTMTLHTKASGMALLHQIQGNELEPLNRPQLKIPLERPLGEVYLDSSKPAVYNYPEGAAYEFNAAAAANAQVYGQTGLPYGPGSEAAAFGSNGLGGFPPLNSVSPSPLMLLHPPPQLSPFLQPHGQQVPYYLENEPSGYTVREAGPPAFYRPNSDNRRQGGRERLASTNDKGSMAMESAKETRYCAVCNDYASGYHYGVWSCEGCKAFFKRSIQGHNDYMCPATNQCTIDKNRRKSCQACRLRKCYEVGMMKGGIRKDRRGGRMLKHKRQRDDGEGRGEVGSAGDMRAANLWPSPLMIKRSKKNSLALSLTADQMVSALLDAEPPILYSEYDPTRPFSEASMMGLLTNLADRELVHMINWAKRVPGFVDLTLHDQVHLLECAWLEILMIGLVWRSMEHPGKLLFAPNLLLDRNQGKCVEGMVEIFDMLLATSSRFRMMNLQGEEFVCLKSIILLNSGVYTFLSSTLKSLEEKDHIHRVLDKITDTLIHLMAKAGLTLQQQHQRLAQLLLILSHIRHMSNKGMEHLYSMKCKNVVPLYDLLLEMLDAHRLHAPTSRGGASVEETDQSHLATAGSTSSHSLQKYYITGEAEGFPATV

MCF7 [2] = test: Antitumor activity against human tamoxifen-sensitive MCF7 cells xenografted in BALB/c nude mouse assessed as reduction in cell proliferation at 5 micromol/kg, ip administered once every 2 days by ki67 staining based analysis; type: functional, organism-based; details: dose 5.0 µmol/kg
T47D [3] = test: Inhibition of gene transcription in human T47D cells assessed as reduction in H3K27ac levels in GREB1 promoter region by ChIP-seq analysis; type: functional, cell-based
T47D [4] = test: Inhibition of gene transcription in human T47D cells assessed as reduction in Pol II occupancy at GREB1 promoter region by ChIP-seq analysis; type: functional, cell-based
T47D [5] = test: Inhibition of gene transcription in human T47D cells assessed as reduction in Pol II occupancy at IGFBP4 promoter region by ChIP-seq analysis; type: functional, cell-based
MCF7 [6] = test: Antitumor activity against human tamoxifen-sensitive MCF7 cells xenografted in BALB/c nude mouse assessed as inhibition of tumor growth at 5 micromol/kg, ip administered once every 2 days and measured every 2 days; type: functional, organism-based; details: dose 5.0 µmol/kg
[7] = target: T1, Estrogen receptor (Homo sapiens); test: Inhibition of ERalpha binding to DNA in human T47D cells assessed as reduction in protein occupancy incubated for 6 hrs by ChIP-seq analysis; type: cell-based
T47D [8] = test: cells; details: Homo sapiens, 72 h
MDA-MB-231 = test: cells; details: Homo sapiens, MDA-MB-231, 72 h
MCF7 [9] = test: Antitumor activity against human tamoxifen-sensitive MCF7 cells xenografted in BALB/c nude mouse assessed as increase in tumor necrosis area at 5 micromol/kg, ip administered once every 2 days by […] staining based analysis; type: functional, organism-based; details: dose 5.0 µmol/kg
T47D [10] = test: Inhibition of nascent IGFBP4 RNA synthesis in human T47D cells incubated for 6 hrs by 4-thiouridine incorporation assay; type: functional, cell-based
MCF7 [11] = test: cells; details: Homo sapiens, MCF7, 72 h
T47D [12] = test: Inhibition of nascent GREB1 RNA synthesis in human T47D cells incubated for 6 hrs by 4-thiouridine incorporation assay; type: functional, cell-based
Mus musculus [13] = test: In vivo protac activity at VHL/ERalpha in BALB/c nude mouse xenografted with human tamoxifen-sensitive MCF7 cells assessed as reduction in ERalpha protein levels in tumor at 5 micromol/kg, ip administered once every 2 days by Western blot analysis; type: functional, organism-based; details: dose 5.0 µmol/kg
T47D [14] = test: Inhibition of gene transcription in human T47D cells assessed as reduction in H3K27ac levels in IGFBP4 promoter region by ChIP-seq analysis; type: functional, cell-based
T47D [15] = test: cells; details: Homo sapiens, 72 h; remark: listed apart in the source
cells = details: Homo sapiens, Tamoxifen-resistant LCC2 cell, 72 h
T47D [16] = test: cells; details: Homo sapiens, 72 h; remark: listed apart in the source
Estrogen receptor beta [17] = target: T2, Estrogen receptor beta (Homo sapiens, UniProt Q92731); test: Binding affinity to ERbeta (unknown origin) assessed as relative binding affinity incubated for 2 hrs by fluorescence polarization assay relative to estradiol
Estrogen receptor beta [18] = target: T2, Estrogen receptor beta; test: Induction of ERbeta degradation in human NCI-H1975 cells at 1 to 10 uM incubated for 12 hrs by Western blot analysis; type: cell-based; details: dose 1-10 µM
[19] = target: T1, Estrogen receptor (Homo sapiens); test: Induction of ERalpha degradation in ER-positive human MCF7 cells at 1 uM incubated for 12 hrs in presence of (2S,4R)-1-[(2S)-2-amino-3,3-dimethylbutanoyl]-4-hydroxy-N-[(1S)-1-[4-(4-methyl-1,3-thiazol-5-yl)phenyl]ethyl]pyrrolidine-2-carboxamide by Western blot analysis; type: cell-based
Estrogen receptor = target: T3, Estrogen receptor (Homo sapiens, UniProt P03372)
T3 sequence (P03372 whole entry): T1 sequence (whole entry)

[20] = Selectivity index, ratio of Ki for ERalpha (unknown origin) to Ki for ERbeta (unknown origin)
Estrogen receptor beta [21] = target: T2, Estrogen receptor beta
[22] = target: T1, Estrogen receptor (Homo sapiens); test: Induction of ERalpha degradation in ER-positive human MCF7 cells at 1 uM incubated for 12 hrs by Western blot analysis; type: cell-based
[23] = Selectivity ratio of relative binding affinity for ERalpha (unknown origin) to relative binding affinity to ERbeta (unknown origin)
[24] = target: T1, Estrogen receptor (Homo sapiens); test: Induction of ERalpha degradation in ER-positive human MCF7 cells at 1 to 10 uM incubated for 12 hrs by Western blot analysis; type: cell-based; details: dose 1-10 µM
[25] = target: T4, von Hippel-Lindau disease tumor suppressor/Estrogen receptor (Homo sapiens) (UniProt P03372+P40337); test: PROTAC activity at VHL/ERalpha in ER-positive human tamoxifen-resistant LCC2 cells assessed as induction of ERalpha degradation at 2 uM incubated for 12 hrs by Western blot analysis; type: cell-based; details: tamoxifen-resistant LCC2 cell
[26] = target: T4, von Hippel-Lindau disease tumor suppressor/Estrogen receptor (Homo sapiens); test: PROTAC activity at VHL/wild type ERalpha in ER-positive human MCF7 cells assessed as induction of ERalpha degradation at 1 uM incubated for 12 hrs by Western blot analysis; type: cell-based
MCF7 [27] = test: Induction of apoptosis in human MCF7 cells at 1 to 10 uM incubated for 24 hrs by Annexin V-FITC/PI staining based analysis; type: functional, cell-based; details: dose 1-10 µM
[28] = test system: tamoxifen-resistant LCC2 cell; test: Antitumor activity against human ER-positive tamoxifen-resistant LCC2 cells xenografted in BALB/c nude mouse assessed as reduction in tumor growth at 5 micromol/kg, ip administered once every 2 days and measured every 2 days; type: functional, organism-based; details: dose 5.0 µmol/kg
[29] = target: von Hippel-Lindau disease tumor suppressor/Estrogen receptor beta (Homo sapiens) (UniProt Q92731+P40337); test: PROTAC activity at VHL/ERbeta in human NCI-H1975 cells assessed as induction of ERbeta degradation at 1 to 10 uM incubated for 12 hrs by Western blot analysis; type: cell-based; details: dose 1-10 µM
MCF7 [30] = test: Induction of cell cycle arrest in human MCF7 cells at 1 to 10 uM incubated for 24 hrs; type: functional, cell-based; details: dose 1-10 µM
[31] = target: T4, von Hippel-Lindau disease tumor suppressor/Estrogen receptor (Homo sapiens); test: PROTAC activity at VHL/wild type ERalpha in ER-positive human T47D cells assessed as induction of ERalpha degradation at 2 uM incubated for 12 hrs by Western blot analysis; type: cell-based
Mus musculus [32] = test: In vivo protac activity at VHL/ERalpha in BALB/c nude mouse xenografted with human ER-positive tamoxifen-resistant LCC2 cells assessed as reduction in ERalpha protein levels in tumor at 5 micromol/kg, ip administered once every 2 days by Western blot analysis; type: functional, organism-based; details: dose 5.0 µmol/kg
[33] = target: T4, von Hippel-Lindau disease tumor suppressor/Estrogen receptor (Homo sapiens); test: PROTAC activity at VHL/ERalpha in ER-positive human MCF7 cells assessed as induction of ERalpha degradation at 0.01 to 10 uM incubated for 12 hrs by Western blot analysis; type: cell-based; details: dose 0.01-10 µM
in vitro = details: human, MCF-10A cells
[34] = target: T1, Estrogen receptor (Homo sapiens); test: Induction of ERalpha degradation in ER-positive human MCF7 cells at 1 uM incubated for 12 hrs in presence of N-ethyl-5,6-bis(4-hydroxyphenyl)-N-(4-methoxyphenyl)-7-oxabicyclo[2.2.1]hept-5-ene-2-sulfonamide by Western blot analysis; type: cell-based
[35] = target: T1, Estrogen receptor (Homo sapiens); test: Induction of ERalpha degradation in ER-positive human MCF7 cells at 10 uM incubated for 12 hrs by Western blot analysis; type: cell-based
Estrogen receptor beta [36] = target: T2, Estrogen receptor beta; test: Induction of ERbeta degradation in human NCI-H1975 cells at 10 uM incubated for 12 hrs by Western blot analysis; type: cell-based

T4 sequence (P40337 whole entry, looked up, one chain of several): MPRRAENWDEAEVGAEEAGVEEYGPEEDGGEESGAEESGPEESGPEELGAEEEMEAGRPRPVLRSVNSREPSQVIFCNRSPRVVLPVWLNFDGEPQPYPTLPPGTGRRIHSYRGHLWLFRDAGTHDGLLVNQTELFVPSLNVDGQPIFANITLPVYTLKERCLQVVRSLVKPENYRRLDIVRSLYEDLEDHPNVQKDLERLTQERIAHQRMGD
T2 sequence (Q92731 whole entry): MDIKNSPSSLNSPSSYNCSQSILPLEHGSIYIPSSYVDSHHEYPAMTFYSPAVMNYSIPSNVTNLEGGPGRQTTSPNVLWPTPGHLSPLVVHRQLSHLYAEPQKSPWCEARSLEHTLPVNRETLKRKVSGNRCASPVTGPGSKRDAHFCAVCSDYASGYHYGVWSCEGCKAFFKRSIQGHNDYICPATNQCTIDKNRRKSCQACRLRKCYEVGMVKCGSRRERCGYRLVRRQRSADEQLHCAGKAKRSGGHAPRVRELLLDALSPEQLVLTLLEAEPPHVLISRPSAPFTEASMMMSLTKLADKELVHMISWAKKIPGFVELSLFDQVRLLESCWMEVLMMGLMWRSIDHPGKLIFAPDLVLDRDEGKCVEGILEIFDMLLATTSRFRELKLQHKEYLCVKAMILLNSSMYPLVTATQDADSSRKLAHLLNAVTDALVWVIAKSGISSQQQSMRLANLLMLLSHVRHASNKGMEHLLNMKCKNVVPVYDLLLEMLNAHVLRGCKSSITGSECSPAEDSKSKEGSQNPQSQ
Chain of von Hippel-Lindau disease tumor suppressor/Estrogen receptor beta (Homo sapiens) (P40337 whole entry, looked up): as the sequence (P40337 whole entry, looked up, one chain of several) above
Chain of von Hippel-Lindau disease tumor suppressor/Estrogen receptor beta (Homo sapiens) (Q92731 whole entry, looked up): as the sequence (Q92731 whole entry) above

Compound | inhibition (T47D [3]) | inhibition (T47D [4]) | inhibition (T47D [5]) | inhibition [7] | pIC50 (T47D [8]) | pIC50 (MDA-MB-231) | inhibition (T47D [10]) | pIC50 (MCF7 [11]) | inhibition (T47D [12]) | inhibition (T47D [14]) | pIC50 (T47D [15]) | pIC50 (cells) | pIC50 (T47D [16]) | RBA (Estrogen receptor beta [17]) [%] | pKi (Estrogen receptor) | Ratio Ki [20] | pKi (Estrogen receptor beta [21]) | Activity [22] | Selectivity ratio [23] | further results
CC(C)C[C@@H](C=O)NC(=O)[C@H](CC(C)C)NC(=O)[C@H](CC(C)C)NC(=O)OCc1ccccc1 (Cbz-Leu-Leu-Leu-aldehyde) |  |  |  |  |  |  |  |  |  |  |  |  |  |  |  |  |  |  |  | Activity [1]: inactive
C[C@]12CC[C@@H]3c4ccc(O)cc4C[C@@H](CCCCCCCCC[S+]([O-])CCCC(F)(F)C(F)(F)F)[C@H]3[C@@H]1CC[C@@H]2O (some centres undefined) [FULVESTRANT] | Active | Active | Active | Active | 5.75 | < 4.00 | Active | 6.48 | Active | Active | 5.41 | 4.93 | 5.66 |  |  |  |  |  |  | Activity (MCF7 [2]): Active; inhibition (MCF7 [6]): Active; Activity (MCF7 [9]): Active; Activity (Mus musculus [13]): Active
CCN(c1ccc(OC)cc1)S(=O)(=O)C1CC2OC1C(c1ccc(O)cc1)=C2c1ccc(O)cc1 (centres undefined) |  |  |  |  |  |  |  |  |  |  |  |  |  | 0.31 | 6.72 | 13.1 | 5.60 | inactive | 3.39 | Activity (Estrogen receptor beta [18]): inactive; Activity [19]: inactive; Activity [24]: inactive
Cc1ncsc1-c1ccc([C@H](C)NC(=O)[C@@H]2C[C@@H](O)CN2C(=O)[C@@H](NC(=O)CCCCCOc2ccc(N(CC(F)(F)F)S(=O)(=O)C3CC4OC3C(c3ccc(O)cc3)=C4c3ccc(O)cc3)cc2)C(C)(C)C)cc1 (some centres undefined) | Active | Active | Active | Active | 5.87 | < 4.00 | Active | 7.30 | Active | Active | 5.90 | 5.38 | 5.82 | 0.03 | 5.29 | 5.16 | 4.58 |  | 1.33 | Activity [25]: Active; Activity [26]: Active; Activity (MCF7 [27]): Active; Activity [28]: Active; Activity [29]: inactive; Activity (MCF7 [30]): Active; Activity [31]: Active; Activity (Mus musculus [32]): Active; Activity [33]: Active; IC50 at 72 h (in vitro): 7690 nM
Cc1ncsc1-c1ccc([C@H](C)NC(=O)[C@@H]2C[C@@H](O)CN2C(=O)[C@@H](N)C(C)(C)C)cc1 |  |  |  |  |  |  |  |  |  |  |  |  |  |  |  |  |  | inactive |  | Activity [34]: inactive
COc1ccc(N(CC(F)(F)F)S(=O)(=O)C2CC3OC2C(c2ccc(O)cc2)=C3c2ccc(O)cc2)cc1 (centres undefined) |  |  |  |  |  |  |  |  |  |  |  |  |  |  |  |  |  |  |  | Activity [35]: Active; Activity (Estrogen receptor beta [36]): Active
